This is an account of results in patent US5134124A, “Use of a statin derivative in the treatment of eye complaints” (Sanofi, priority 1989, dated 1992).

Assay [1] concerns intraocular pressure in rabbits. The experiment in a line: Effect on the intraocular pressure in rabbits after increase by intravenous injection of a 5% glucose solution. The assay is classed as in vivo. Particulars: eye lotion, pressure increased by intravenous injection of a 5% glucose solution.
In assay [2] the target is T1, human plasma renin (Homo sapiens, UniProt P00797).
T1 construct: from tissue; host or cells: human plasma
T1 sequence (P00797 67-406): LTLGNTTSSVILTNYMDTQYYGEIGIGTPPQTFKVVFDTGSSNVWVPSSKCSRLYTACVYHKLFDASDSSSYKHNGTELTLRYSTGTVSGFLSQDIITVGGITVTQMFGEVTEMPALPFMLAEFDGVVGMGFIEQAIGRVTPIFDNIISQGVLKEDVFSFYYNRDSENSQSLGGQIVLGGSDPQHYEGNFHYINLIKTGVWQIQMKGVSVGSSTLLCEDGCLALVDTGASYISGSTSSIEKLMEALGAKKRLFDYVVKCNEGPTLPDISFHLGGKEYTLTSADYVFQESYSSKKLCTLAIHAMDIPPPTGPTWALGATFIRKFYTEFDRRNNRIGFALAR
The experiment in a line: Inhibition of human plasma renin activity at pH 7.4. The assay is classed as biochemical. The conditions noted are these: method of EP 211 744, read-out: 50% inhibitory concentration (IC50), inhibition of human plasma renin activity. The method, then: The inhibition of human plasma renin activity at pH 7.4 was measured for this compound (I) according to the method described in patent application EP 211 744.

Take `CCC(C)C(NC(=O)CC(O)C(CC1CCCCC1)NC(=O)C(Cc1cnc[nH]1)NC(=O)C(Cc1ccccc1)NC(=O)CCc1cccnc1)C(=O)NC(O)C(C)CO` (centres unmarked) [compound (I), N-(3-pyridylpropionyl)phenylalanylhistidyl(cyclohexyl)statyl-N-(1,3-dihydroxy-2-methylpropyl)isoleucinamide]: in assay [1], the “effect on the intraocular pressure” value was “enables the intraocular pressure to return rapidly to its normal value”. Further, in assay [2], the IC50 amounted to 1 pM.
